Test results published in article PMC3634352 (Journal of the American Chemical Society, 2013).

Experiments:
S. aureus SgtB [1] = molecular target: T1, S. aureus SgtB (Staphylococcus aureus, UniProt Q99T05); assay type: binding; details: for drop in FP (probe displacement) when used instead of moenomycin: detergent controls
T1 sequence (Q99T05 1-269): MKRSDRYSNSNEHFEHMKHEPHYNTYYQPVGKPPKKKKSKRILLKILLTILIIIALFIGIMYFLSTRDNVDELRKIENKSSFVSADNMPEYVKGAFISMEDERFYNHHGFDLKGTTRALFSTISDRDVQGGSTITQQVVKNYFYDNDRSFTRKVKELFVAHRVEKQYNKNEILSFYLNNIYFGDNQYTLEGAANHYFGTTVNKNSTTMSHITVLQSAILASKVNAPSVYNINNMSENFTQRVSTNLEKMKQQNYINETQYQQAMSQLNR

[2] = background statement; cited from earlier work
S. aureus SgtB [3] = molecular target: T1, S. aureus SgtB; assay type: biochemical
E. coli PBP1b = E. coli PBP1b (Escherichia coli, UniProt P02919); assay: in vitro PGT inhibition; assay type: biochemical
Sequence of E. coli PBP1b (P02919 whole entry): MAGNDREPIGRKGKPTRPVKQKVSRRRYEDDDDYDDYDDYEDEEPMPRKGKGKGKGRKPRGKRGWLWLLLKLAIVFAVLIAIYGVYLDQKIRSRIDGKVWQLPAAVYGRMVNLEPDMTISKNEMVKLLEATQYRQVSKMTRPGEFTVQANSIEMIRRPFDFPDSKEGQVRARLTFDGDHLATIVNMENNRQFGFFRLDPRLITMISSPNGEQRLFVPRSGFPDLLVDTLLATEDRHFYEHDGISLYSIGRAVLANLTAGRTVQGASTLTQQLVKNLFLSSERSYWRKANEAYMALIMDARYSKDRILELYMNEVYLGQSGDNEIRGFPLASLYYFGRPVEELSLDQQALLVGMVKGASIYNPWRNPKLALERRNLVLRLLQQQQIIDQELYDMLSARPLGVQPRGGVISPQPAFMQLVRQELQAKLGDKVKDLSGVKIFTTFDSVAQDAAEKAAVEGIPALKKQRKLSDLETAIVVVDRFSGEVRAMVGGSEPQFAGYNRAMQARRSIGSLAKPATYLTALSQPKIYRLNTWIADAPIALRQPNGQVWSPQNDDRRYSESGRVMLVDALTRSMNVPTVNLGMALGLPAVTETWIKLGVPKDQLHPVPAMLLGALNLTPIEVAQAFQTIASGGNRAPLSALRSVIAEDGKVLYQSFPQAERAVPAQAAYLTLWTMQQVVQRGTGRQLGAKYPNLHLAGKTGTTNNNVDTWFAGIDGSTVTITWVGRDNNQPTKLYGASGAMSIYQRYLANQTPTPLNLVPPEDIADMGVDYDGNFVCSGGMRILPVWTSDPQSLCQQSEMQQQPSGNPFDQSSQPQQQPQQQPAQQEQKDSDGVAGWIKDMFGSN

Compound	drop in FP (probe displacement) when used instead of moenomycin (S. aureus SgtB [1])	oral bioavailability [2]	serum half life [2]	inhibition of enzyme (in words) (S. aureus SgtB [3])	Ki (S. aureus SgtB [1]; read-out: Ki, displacement of probe 2, probe 2 75 nM, S. aureus SgtB 0.2 μM)	inhibition of enzyme (in words) (E. coli PBP1b)
tween-20	no significant drop in FP					
moenomycin A [compound 1]		poor oral bioavailability	long serum half life	low-nanomolar inhibition	640 nM	low-nanomolar inhibition
CCCCCCCCCCCCO[C@@H]1O[C@H](CO)[C@@H](O[C@H]2O[C@H](CO)[C@@H](O)[C@H](O)[C@H]2O)[C@H](O)[C@H]1O [dodecyl maltoside]	no significant drop in FP					
